Reference: patent publication US20240124427A1, “HYDROXYHETEROCYCLOALKANE-CARBAMOYL DERIVATIVES” (Idorsia Pharmaceuticals Ltd, priority 2021, published 2024)

Target: human Gal-3 (hGal-3) (Homo sapiens (Human), UniProt P17931)
Experiment: Competitive binding assay: biotinylated hGal-3 binding to microplate-adsorbed asialofetuin (ASF)
Details: Activity on hGal-3; mean values of several measurements; mixture of diastereomers measured where not separated
In short: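 Biotinylated human Gal-3 binding to plate-adsorbed asialofetuin, competed by compound, 3 h at 4 °C. Bound protein detected with streptavidin-peroxidase (1 h, 4 °C) and ABTS substrate. IC50 reported as mean of several measurements.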

human Gal-3 (hGal-3), sequence (P17931 whole entry): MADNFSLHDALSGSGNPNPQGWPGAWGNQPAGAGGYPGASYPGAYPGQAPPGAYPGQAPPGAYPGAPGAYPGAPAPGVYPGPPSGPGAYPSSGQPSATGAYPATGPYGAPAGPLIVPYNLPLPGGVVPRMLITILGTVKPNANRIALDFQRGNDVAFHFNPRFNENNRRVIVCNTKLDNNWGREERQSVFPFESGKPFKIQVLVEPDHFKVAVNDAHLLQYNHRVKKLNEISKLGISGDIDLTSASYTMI

| SMILES | IC50 |
| --- | --- |
| CO[C@@H]1[C@@H](n2cc(-c3cc(F)c(C)c(F)c3)nn2)[C@@H](O)[C@@H](CO)O[C@H]1C(=O)N(c1cc(Br)cc(Br)c1)[C@H]1COC[C@@H]1O [Example 16, (2R,3R,4S,5R,6R)-N-(3,5-dibromophenyl)-4-(4-(3,5-difluoro-4-methylphenyl)-1H-1,2,3-triazol-1-yl)-5-hydroxy-6-(hydroxymethyl)-N-((3S,4R)-4-hydroxytetrahydrofuran-3-yl)-3-methoxytetrahydro-2H-pyran-2-carboxamide] | 61 nM |
| CO[C@@H]1[C@@H](n2cc(-c3cc(F)c(F)c(F)c3)nn2)[C@@H](O)[C@@H](CO)O[C@H]1C(=O)N(c1cc(C)cc(Br)c1)[C@@H]1COC[C@H]1O [Example 37, (2R,3R,4S,5R,6R)-N-(3-bromo-5-methylphenyl)-5-hydroxy-6-(hydroxymethyl)-N-((3R,4S)-4-hydroxytetrahydrofuran-3-yl)-3-methoxy-4-(4-(3,4,5-trifluorophenyl)-1H-1,2,3-triazol-1-yl)tetrahydro-2H-pyran-2-carboxamide] | 186 nM |
| CO[C@@H]1[C@@H](n2cc(-c3cc(F)c(F)c(F)c3)nn2)[C@@H](O)[C@@H](CO)O[C@H]1C(=O)N(c1cc(C)cc(Br)c1)[C@@H]1COCC[C@H]1O [Example 108, (2R,3R,4S,5R,6R)-N-(3-bromo-5-methylphenyl)-5-hydroxy-6-(hydroxymethyl)-N-((3R,4R)-4-hydroxytetrahydro-2H-pyran-3-yl)-3-methoxy-4-(4-(3,4,5-trifluorophenyl)-1H-1,2,3-triazol-1-yl)tetrahydro-2H-pyran-2-carboxamide] | 315 nM |
| CO[C@@H]1[C@@H](n2cc(-c3cc(F)c(F)c(F)c3)nn2)[C@@H](O)[C@@H](CO)O[C@H]1C(=O)N(c1cc(Br)cc(Br)c1)[C@@H]1COC[C@H]1O [Example 35, (2R,3R,4S,5R,6R)-N-(3,5-dibromophenyl)-5-hydroxy-6-(hydroxymethyl)-N-((3R,4S)-4-hydroxytetrahydrofuran-3-yl)-3-methoxy-4-(4-(3,4,5-trifluorophenyl)-1H-1,2,3-triazol-1-yl)tetrahydro-2H-pyran-2-carboxamide] | 84 nM |
| CO[C@@H]1[C@@H](n2cc(-c3cc(F)c(C)c(F)c3)nn2)[C@@H](O)[C@@H](CO)O[C@H]1C(=O)N(c1cc(Br)cc(Br)c1)[C@@H]1CN(C(C)=O)C[C@H]1O [Example 81, (2R,3R,4S,5R,6R)-N-((3R,4R)-1-acetyl-4-hydroxypyrrolidin-3-yl)-N-(3,5-dibromophenyl)-4-(4-(3,5-difluoro-4-methylphenyl)-1H-1,2,3-triazol-1-yl)-5-hydroxy-6-(hydroxymethyl)-3-methoxytetrahydro-2H-pyran-2-carboxamide] | 40 nM |
| CO[C@@H]1[C@@H](n2cc(-c3cc(F)c(Cl)c(F)c3)nn2)[C@@H](O)[C@@H](CO)O[C@H]1C(=O)N(c1cc(Cl)cc(Cl)c1)[C@@H]1COC[C@H]1O [Example 51, (2R,3R,4S,5R,6R)-4-(4-(4-chloro-3,5-difluorophenyl)-1H-1,2,3-triazol-1-yl)-N-(3,5-dichlorophenyl)-5-hydroxy-6-(hydroxymethyl)-N-((3R,4S)-4-hydroxytetrahydrofuran-3-yl)-3-methoxytetrahydro-2H-pyran-2-carboxamide] | 73 nM |
| CO[C@@H]1[C@@H](n2cc(-c3cc(F)c(F)c(F)c3)nn2)[C@@H](O)[C@@H](CO)O[C@H]1C(=O)N(c1cc(Cl)cc(Cl)c1)[C@H]1COCC[C@@H]1O [Example 105, (2R,3R,4S,5R,6R)-N-(3,5-dichlorophenyl)-5-hydroxy-6-(hydroxymethyl)-N-((3S,4S)-4-hydroxytetrahydro-2H-pyran-3-yl)-3-methoxy-4-(4-(3,4,5-trifluorophenyl)-1H-1,2,3-triazol-1-yl)tetrahydro-2H-pyran-2-carboxamide] | 18 nM |
| CO[C@@H]1[C@@H](n2cc(-c3ccc(C)c(F)c3F)nn2)[C@@H](O)[C@@H](CO)O[C@H]1C(=O)N(c1cc(C)cc(Br)c1)[C@H]1COC[C@@H]1O [Example 21, (2R,3R,4S,5R,6R)-N-(3-bromo-5-methylphenyl)-4-(4-(2,3-difluoro-4-methylphenyl)-1H-1,2,3-triazol-1-yl)-5-hydroxy-6-(hydroxymethyl)-N-((3S,4R)-4-hydroxytetrahydrofuran-3-yl)-3-methoxytetrahydro-2H-pyran-2-carboxamide] | 35 nM |
| CO[C@@H]1[C@@H](n2cc(-c3cc(F)c(F)c(F)c3)nn2)[C@@H](O)[C@@H](CO)O[C@H]1C(=O)N(c1cc(Cl)cc(Cl)c1)[C@H]1CCOC[C@@H]1O [Example 99, (2R,3R,4S,5R,6R)-N-(3,5-dichlorophenyl)-5-hydroxy-6-(hydroxymethyl)-N-((3R,4S)-3-hydroxytetrahydro-2H-pyran-4-yl)-3-methoxy-4-(4-(3,4,5-trifluorophenyl)-1H-1,2,3-triazol-1-yl)tetrahydro-2H-pyran-2-carboxamide] | 16 nM |
| CO[C@@H]1[C@@H](n2cc(-c3cc(F)c(C)c(F)c3)nn2)[C@@H](O)[C@@H](CO)O[C@H]1C(=O)N(c1cc(C)cc(Br)c1)[C@@H]1CN(C(C)=O)C[C@H]1O [Example 82, (2R,3R,4S,5R,6R)-N-((3R,4R)-1-acetyl-4-hydroxypyrrolidin-3-yl)-N-(3-bromo-5-methylphenyl)-4-(4-(3,5-difluoro-4-methylphenyl)-1H-1,2,3-triazol-1-yl)-5-hydroxy-6-(hydroxymethyl)-3-methoxytetrahydro-2H-pyran-2-carboxamide] | 45 nM |
| CO[C@@H]1[C@@H](n2cc(-c3cc(F)c(C)c(F)c3)nn2)[C@@H](O)[C@@H](CO)O[C@H]1C(=O)N(c1cc(Cl)cc(Cl)c1)[C@H]1COC[C@@H]1O [Example 15, (2R,3R,4S,5R,6R)-N-(3,5-dichlorophenyl)-4-(4-(3,5-difluoro-4-methylphenyl)-1H-1,2,3-triazol-1-yl)-5-hydroxy-6-(hydroxymethyl)-N-((3S,4R)-4-hydroxytetrahydrofuran-3-yl)-3-methoxytetrahydro-2H-pyran-2-carboxamide] | 38 nM |
| CO[C@@H]1[C@@H](n2cc(-c3cc(F)c(F)c(F)c3)nn2)[C@@H](O)[C@@H](CO)O[C@H]1C(=O)N(c1cc(C)cc(Br)c1)[C@H]1CNC[C@@H]1O [Example 61, (2R,3R,4S,5R,6R)-N-(3-bromo-5-methylphenyl)-5-hydroxy-6-(hydroxymethyl)-N-((3S,4S)-4-hydroxypyrrolidin-3-yl)-3-methoxy-4-(4-(3,4,5-trifluorophenyl)-1H-1,2,3-triazol-1-yl)tetrahydro-2H-pyran-2-carboxamide] | 26 nM |
| CO[C@@H]1[C@@H](n2cc(-c3cc(F)c(F)c(F)c3)nn2)[C@@H](O)[C@@H](CO)O[C@H]1C(=O)N(c1cc(Br)cc(C#N)c1)[C@H]1CCOC[C@@H]1O [Example 101, (2R,3R,4S,5R,6R)-N-(3-bromo-5-cyanophenyl)-5-hydroxy-6-(hydroxymethyl)-N-((3R,4S)-3-hydroxytetrahydro-2H-pyran-4-yl)-3-methoxy-4-(4-(3,4,5-trifluorophenyl)-1H-1,2,3-triazol-1-yl)tetrahydro-2H-pyran-2-carboxamide] | 14 nM |
| CO[C@@H]1[C@@H](n2cc(-c3ccc(Br)c(F)c3F)nn2)[C@@H](O)[C@@H](CO)O[C@H]1C(=O)N(c1cc(Cl)cc(Cl)c1)[C@H]1COC[C@@H]1O [Example 12, (2R,3R,4S,5R,6R)-4-(4-(4-bromo-2,3-difluorophenyl)-1H-1,2,3-triazol-1-yl)-N-(3,5-dichlorophenyl)-5-hydroxy-6-(hydroxymethyl)-N-((3S,4R)-4-hydroxytetrahydrofuran-3-yl)-3-methoxytetrahydro-2H-pyran-2-carboxamide] | 47 nM |
| CO[C@@H]1[C@@H](n2cc(-c3cc(F)c(F)c(F)c3)nn2)[C@@H](O)[C@@H](CO)O[C@H]1C(=O)N(c1cc(C)cc(C#N)c1)[C@H]1COC[C@@H]1O [Example 10, (2R,3R,4S,5R,6R)-N-(3-cyano-5-methylphenyl)-5-hydroxy-6-(hydroxymethyl)-N-((3S,4R)-4-hydroxytetrahydrofuran-3-yl)-3-methoxy-4-(4-(3,4,5-trifluorophenyl)-1H-1,2,3-triazol-1-yl)tetrahydro-2H-pyran-2-carboxamide] | 136 nM |
| CO[C@@H]1[C@@H](n2cc(-c3cc(F)c(F)c(F)c3)nn2)[C@@H](O)[C@@H](CO)O[C@H]1C(=O)N(c1cc(C)cc(Br)c1)[C@@H]1CN(C=O)C[C@H]1O [Example 94, (2R,3R,4S,5R,6R)-N-(3-bromo-5-methylphenyl)-N-((3R,4R)-1-formyl-4-hydroxypyrrolidin-3-yl)-5-hydroxy-6-(hydroxymethyl)-3-methoxy-4-(4-(3,4,5-trifluorophenyl)-1H-1,2,3-triazol-1-yl)tetrahydro-2H-pyran-2-carboxamide] | 86 nM |
| CO[C@@H]1[C@@H](n2cc(-c3cc(F)c(Cl)c(F)c3)nn2)[C@@H](O)[C@@H](CO)O[C@H]1C(=O)N(c1cc(C)cc(Br)c1)[C@H]1CN(C(C)=O)C[C@@H]1O [Example 76, (2R,3R,4S,5R,6R)-N-((3S,4S)-1-acetyl-4-hydroxypyrrolidin-3-yl)-N-(3-bromo-5-methylphenyl)-4-(4-(4-chloro-3,5-difluorophenyl)-1H-1,2,3-triazol-1-yl)-5-hydroxy-6-(hydroxymethyl)-3-methoxytetrahydro-2H-pyran-2-carboxamide] | 37 nM |
| CO[C@@H]1[C@@H](n2cc(-c3ccc(C)c(F)c3F)nn2)[C@@H](O)[C@@H](CO)O[C@H]1C(=O)N(c1cc(Br)cc(C#N)c1)[C@H]1COC[C@@H]1O [Example 20, (2R,3R,4S,5R,6R)-N-(3-bromo-5-cyanophenyl)-4-(4-(2,3-difluoro-4-methylphenyl)-1H-1,2,3-triazol-1-yl)-5-hydroxy-6-(hydroxymethyl)-N-((3S,4R)-4-hydroxytetrahydrofuran-3-yl)-3-methoxytetrahydro-2H-pyran-2-carboxamide] | 31 nM |
